For assay [1], the target named is T1, ATP receptor (Xenopus sp., UniProt F6VH38).
T1 sequence (F6VH38 whole entry): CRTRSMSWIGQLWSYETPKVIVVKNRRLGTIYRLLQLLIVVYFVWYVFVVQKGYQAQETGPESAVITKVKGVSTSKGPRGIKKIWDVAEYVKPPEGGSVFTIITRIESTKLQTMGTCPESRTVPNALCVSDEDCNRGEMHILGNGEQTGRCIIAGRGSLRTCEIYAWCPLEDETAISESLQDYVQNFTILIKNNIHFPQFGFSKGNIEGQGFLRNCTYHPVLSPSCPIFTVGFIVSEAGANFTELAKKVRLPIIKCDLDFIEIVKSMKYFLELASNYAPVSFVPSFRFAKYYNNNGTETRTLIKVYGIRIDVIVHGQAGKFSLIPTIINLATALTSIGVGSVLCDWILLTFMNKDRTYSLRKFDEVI

For assay [2], the target named is T2, ATP receptor (Xenopus sp., UniProt Q64F95).
T2 sequence (Q64F95 whole entry): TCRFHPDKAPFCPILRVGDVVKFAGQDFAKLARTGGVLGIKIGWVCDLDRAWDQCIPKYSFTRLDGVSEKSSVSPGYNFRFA

Assay [3] addresses T3, P2X purinoceptor (Xenopus sp., UniProt Q9DDP1).
T3 sequence (Q9DDP1 whole entry): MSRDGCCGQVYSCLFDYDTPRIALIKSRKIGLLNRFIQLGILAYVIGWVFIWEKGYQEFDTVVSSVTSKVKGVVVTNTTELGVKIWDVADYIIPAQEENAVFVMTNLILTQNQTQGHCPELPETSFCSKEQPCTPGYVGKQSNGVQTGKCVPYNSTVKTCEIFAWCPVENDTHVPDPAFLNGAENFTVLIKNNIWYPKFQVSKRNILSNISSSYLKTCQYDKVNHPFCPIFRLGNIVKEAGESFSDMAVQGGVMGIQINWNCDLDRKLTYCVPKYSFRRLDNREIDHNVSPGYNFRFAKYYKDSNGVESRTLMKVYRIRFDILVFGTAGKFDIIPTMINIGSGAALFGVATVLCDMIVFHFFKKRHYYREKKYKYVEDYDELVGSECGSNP

Broadly, the Ki is the equilibrium dissociation constant of an inhibitor or competing ligand from its target. A high value points to lower affinity.

Bounds are passed on as bounds.

Turning to `O=C(Nc1ccc(C(=O)Nc2ccc(C(=O)Nc3ccc(S(=O)(=O)O)c4cc(S(=O)(=O)O)cc(S(=O)(=O)O)c34)cc2)cc1)Nc1ccc(C(=O)Nc2ccc(C(=O)Nc3ccc(S(=O)(=O)O)c4cc(S(=O)(=O)O)cc(S(=O)(=O)O)c34)cc2)cc1` [CAS_5311315], the Ki is 0.77 µM in assay [1], 1.62 µM in assay [2] and over 10 µM in assay [3].

Source of the values: BindingDB's records for doi:10.1016/s0028-3908(00)00022-8 (University of Frankfurt, 2000).
